This passage reports RP-LC retention time results from the METLIN SMRT retention time set (Domingo-Almenara et al. 2019).

Structures are written as SMILES.

A short description of the data set: gradient 5% acetonitrile 3 min, to 50% in 2 min, to 85% in 15 min, held 3 min, 100 µL/min. The conditions noted are these: column: Zorbax Extend-C18 2.1 x 50 mm; eluents: water / acetonitrile, 0.1% formic acid. A digest of the protocol: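 Retention times come from adduct peaks that were picked computationally and then checked by hand. The standards, pure and pooled in mixtures of ~100 molecules, were run on a Zorbax Extend-C18 column (2.1 × 50 mm, 1.8 μm) at 100 μL/min with water and acetonitrile, each with 0.1% formic acid. Detection was by quadrupole time-of-flight mass spectrometry in positive and negative ionization mode, with a dead volume of 40 μL and a dwell volume of 900 μL.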
On to `Cc1nc(-c2cc(S(=O)(=O)Nc3ccc(Br)cc3C)c(C)s2)cs1`, for which the RP-LC retention time stood at 1100 s.
`Cc1nnc(C2CCCCCN2S(=O)(=O)c2cccnc2)o1` (configuration not stated) displayed an RP-LC retention time of 691 s.
`Cn1cc(-c2cc3n(n2)CCC(=O)N3CC(=O)NC2CCCc3ccccc32)c2ccccc21` (configuration not stated): the RP-LC retention time amounted to 882 s.
As for `COc1ccc(C2C(C(=O)Nc3ccccn3)c3cc(OC)c(OC)cc3C(=O)N2C)cc1OC` (configuration not stated), the RP-LC retention time came to 677 s.
`CCCn1cc(-c2ccncc2)cc1C(=O)Nc1ccc(NC(C)=O)cc1` yielded an RP-LC retention time of 594 s.
The compound `CCOC(=O)c1c(C)[nH]c(CCC(=O)NCc2ccc3c(c2)OCO3)c1C` yielded an RP-LC retention time of 738 s.
Consider `Cn1nc(-c2nncn2CC2CC2)c2c1CCN(C(=O)CC1CCCC1)C2`, for which the RP-LC retention time turned out to be 753 s.
The same measure for `O=C(NC1CC1)[C@@H]1C[C@H](Oc2ccccc2)CN1C(=O)CCC1CCCC1`: 886 s.
The same measure for `CCOC(=O)c1cccc(NC(=O)C2CCCN(c3ccc(=O)n(-c4cccc(Cl)c4)n3)C2)c1` (configuration not stated): 994 s; for `COc1ccc(NC(=O)c2nnc(CCCC(=O)NCCc3c[nH]c4ccc(Cl)cc34)s2)cc1`: 892 s; for `Cc1cc(C)n(-c2ccnc(N3CCC(C(=O)NC4CCCC4)CC3)n2)n1`: 786 s.
`CC1Oc2ccc(S(=O)(=O)N3CCC(C(=O)NCCc4ccccc4)CC3)cc2NC1=O` (configuration not stated) yielded an RP-LC retention time of 792 s.
In the case of `COc1cccc(-c2cc(N3CCN(C(=O)Nc4cc(OC)ccc4OC)CC3)ncn2)c1`, the RP-LC retention time worked out at 688 s.
Then `Cc1cc(OC(C)C(=O)N(Cc2ccco2)C2CCS(=O)(=O)C2)cc(C)c1Cl` (configuration not stated), with 1010 s; and `CCOC1CCN(C(=O)NC2CCCCC2)CC1`, with 740 s.
The same measure for `CN(CCc1noc(COc2ccc(Cl)cc2)n1)C(=O)NCc1ccccc1`: 944 s; for `CN(CCc1ccccn1)C(=O)CCC1CCCN(c2cc(NC3CC3)ncn2)C1` (configuration not stated): 561 s; for `COc1ccccc1CCNC(=O)CSc1nc(=O)n(Cc2ccco2)c2c1CCC2`: 739 s.
Then `O=C(c1ccc2c(=O)n(Cc3ccccc3)c(N3CCCC3)nc2c1)N1CCN(c2ccccn2)CC1`, with 655 s; and `O=C1C2N=NN(Cc3nc(-c4ccc(Br)cc4)no3)C2C(=O)N1c1ccccc1` (configuration not stated), with 1030 s; and `CCC(C)NC(=O)N1CCN(c2nc3ccccc3n(Cc3ccccc3)c2=O)CC1` (configuration not stated), with 981 s.
Compound `CN1C(=O)c2ccccc2Oc2ccc(C(=O)NCc3ccco3)cc21` returned an RP-LC retention time of 788 s.
The same measure for `CCC(C)NC(=O)C1CCC(=O)N(c2ccc(OC)cc2)C1c1ccc(OC)c(OC)c1` (configuration not stated): 638 s.
The same measure for `CCC(C(=O)NCCc1cnc[nH]1)n1c2ccccc2c2cnn(C)c(=O)c21` (configuration not stated): 603 s; for `CCCN1C(=O)c2cc(S(=O)(=O)Nc3cccc(F)c3)ccc2Oc2cccnc21`: 1060 s; for `COc1cc2ccccc2cc1C(=O)Nc1nccs1`: 888 s.
The same measure for `COc1ccccc1-c1cc(C(F)(F)F)n2ncc(C(=O)OCCN3CCOCC3)c2n1`: 710 s; for `Cc1nc2cc(-c3noc(Cc4ccc(Br)cc4)n3)ccc2n(C)c1=O`: 1020 s; for `CCCNC(=O)Cn1nc2cc(-c3ccccc3)nc(C)n2c1=O`: 766 s.
`CCN(CC)S(=O)(=O)c1cc(-c2nc(C(C)C)cs2)sc1C` displayed an RP-LC retention time of 1270 s.
With `O=C(NC(c1ccccc1)c1nnc(N2CCOCC2)o1)C1CCCCC1` (configuration not stated), the RP-LC retention time is 735 s.
The compound `Cc1[nH]c(C(=O)N2CCCC(C(=O)NCc3ccc4c(c3)OCO4)C2)c(C)c1C(=O)OC(C)C` (configuration not stated) showed an RP-LC retention time of 842 s.
